From PubChem BioAssay AID623872 (Sanford-Burnham Center for Chemical Genomics, 2012)
Calls of active or inactive are those of the source.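 Rule for the calls: active = IC50 at or below 20 µM in the dose response; inactive = the rest.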

The molecules below were run on HL-1 cardiomyocytes, H2O2 protection, ATPLite, 2 h (assay: protection of HL-1 cells from peroxide death, SAR follow-up, hydrogen peroxide, ATP luminescence (AID 623872)).

| SMILES | IC50 |
| --- | --- |
| COCCn1c(SC(C(=O)Nc2cc(C)ccc2C)c2ccccc2)nc2ccccc2c1=O (stereo not given) | > 79 µM (inactive) |
| COc1ccc(-n2cc(-c3ccccc3)c3c(N4CCCC4)ncnc32)cc1 | > 79 µM (inactive) |
| NC(=O)c1nsc(C(=O)N(Cc2ccccc2)C(C(=O)NCc2ccc(F)cc2)c2ccc(O)cc2)c1N (stereo not given) | > 79 µM (inactive) |
| COCCNC(=O)C(c1ccc(O)cc1)N(C(=O)c1snc(C(N)=O)c1N)c1ccccc1F (stereo not given) | > 79 µM (inactive) |
| COc1ccc(-c2cc(C(=O)Nc3ccccc3)c3ccccc3n2)cc1OC | > 79 µM (inactive) |
| COc1ccc2c(=O)c(C(=O)N3CCN(S(=O)(=O)c4c(C)cc(C)cc4C)CC3)c[nH]c2c1 | > 79 µM (inactive) |
| COc1ccc(-c2cc(C(=O)N(C)Cc3ccc(OC)c(OC)c3OC)c3ccccc3n2)cc1OC | > 79 µM (inactive) |
| O=C(C(=O)N1CCCC1)c1c(-c2ccccc2)[nH]c2ccccc12 | > 79 µM (inactive) |
| Cc1ccc2cc(CN(C)S(=O)(=O)c3ccc(F)cc3)c(=O)[nH]c2c1 | > 79 µM (inactive) |
| COc1ccccc1N1C(=O)c2ccccc2N2C(=O)c3c(ccc(OC)c3OC)C12 (stereo not given) | 77.1 µM (inactive) |
| COc1ccc2c(c1OC)C(=O)N1c3ccccc3C(=O)N(c3ccccc3C)C21 (stereo not given) | > 79 µM (inactive) |
| COc1ccc2c(c1OC)C(=O)N1c3ccccc3C(=O)N(c3cccc(Br)c3)C21 (stereo not given) | 1.89 µM |
| COc1cccc(CN(C)C(=O)c2cc(-c3ccc(OC)c(OC)c3)nc3ccccc23)c1 | > 79 µM (inactive) |
| COc1ccc(-c2cc(C(=O)NCc3ccccc3)c3ccccc3n2)cc1OC | > 79 µM (inactive) |
| Cc1ccccc1N(C(=O)c1snc(C(N)=O)c1N)C(C(=O)NCc1ccc(F)cc1)c1ccc(O)cc1 (stereo not given) | > 79 µM (inactive) |
| COc1ccc(-n2cc(-c3ccccc3)c3c(NCc4ccccc4)ncnc32)cc1 | > 79 µM (inactive) |
| COc1ccc(N2C(=O)c3ccccc3N3C(=O)c4c(ccc(OC)c4OC)C23)cc1 (stereo not given) | > 79 µM (inactive) |
| COc1ccc(NC(=O)CN(C)C(=O)c2cc(-c3cccs3)nn2-c2ccccc2)cc1 | > 79 µM (inactive) |
| CCN(CC)C(=O)C(=O)c1c(-c2ccccc2)[nH]c2ccccc12 | > 79 µM (inactive) |
| Cc1ccc(C)c(S(=O)(=O)N2CCN(C(=O)c3cc4cc(C)ccc4nc3C)CC2)c1 | > 79 µM (inactive) |
| Cc1ccc2cc(CN(Cc3cccnc3)S(=O)(=O)c3ccc(F)cc3)c(=O)[nH]c2c1 | > 79 µM (inactive) |
| O=C1c2ccccc2N2C(=O)c3ccccc3[C@H]2N1c1ccccc1 | > 79 µM (inactive) |
| CCN(CC(=O)Nc1ccc(OC)cc1)C(=O)c1cc(-c2cccs2)nn1-c1ccccc1 | > 79 µM (inactive) |

| SMILES | IC50 |
| --- | --- |
| Cc1ccc(-c2[nH]c3ccccc3c2C(=O)C(=O)N(C)C)cc1 | > 79 µM (inactive) |
| COc1cccc(CN(C)C(=O)c2cc(-c3ccccc3)nc3ccc(C)cc23)c1OC | > 79 µM (inactive) |
| COc1ccc2cc(C(=O)N3CCN(S(=O)(=O)c4cc(C)ccc4C)CC3)c(C)nc2c1 | > 79 µM (inactive) |
| COc1ccc2c(c1OC)C(=O)N1c3ccccc3C(=O)N(c3ccc(F)cc3)C21 (stereo not given) | 35.6 µM (inactive) |
| COc1ccc(-c2cc(C(=O)NCc3ccco3)c3ccccc3n2)cc1OC | > 79 µM (inactive) |
| Cc1ccc(S(=O)(=O)N(Cc2cccnc2)Cc2cc3ccccc3[nH]c2=O)cc1 | > 79 µM (inactive) |
| Cc1ccc(NC(=O)CN(C)C(=O)c2cc(-c3cccs3)nn2-c2ccccc2)cc1 | > 79 µM (inactive) |
| COc1ccc(-n2cc(-c3ccccc3)c3c(N4CCCCC4)ncnc32)cc1 | > 79 µM (inactive) |
| CCN(CC)S(=O)(=O)c1cc(C(=O)N2CCN(Cc3cccc4cccnc34)CC2)ccc1C | > 79 µM (inactive) |
| COc1cccc(NC(=O)CN(C)C(=O)c2cc(-c3cccs3)nn2-c2ccccc2)c1 | > 79 µM (inactive) |
| COc1cccc(NC(=O)C(Sc2nc3ccccc3c(=O)n2CC(C)C)c2ccccc2)c1 (stereo not given) | > 79 µM (inactive) |
| CC(C)CCNC(=O)C(c1ccc(O)cc1)N(C(=O)c1snc(C(N)=O)c1N)c1ccccc1F (stereo not given) | > 79 µM (inactive) |
| CCCn1c(SC(C(=O)Nc2cccc(OC)c2)c2ccccc2)nc2ccccc2c1=O (stereo not given) | > 79 µM (inactive) |
| O=C(C(=O)N1CCCCC1)c1c(-c2ccccc2)[nH]c2ccccc12 | > 79 µM (inactive) |
| COc1ccc(-c2cc(C(=O)N(C)C)c3ccccc3n2)cc1OC | > 79 µM (inactive) |
| COc1ccc2cc(C(=O)N3CCN(S(=O)(=O)c4ccc(C)cc4C)CC3)c(C)nc2c1 | > 79 µM (inactive) |
| NC(=O)c1nsc(C(=O)N(c2cccc(F)c2)C(C(=O)NC2CCCC2)c2ccc(O)cc2)c1N (stereo not given) | > 79 µM (inactive) |
| CCCN(CC(=O)Nc1ccccc1OC)C(=O)c1cc(-c2cccs2)nn1-c1ccccc1 | > 79 µM (inactive) |
| COc1ccc(S(=O)(=O)N(Cc2cccnc2)Cc2cc3ccccc3[nH]c2=O)cc1 | > 79 µM (inactive) |
| Cc1ccc(S(=O)(=O)N2CCN(C(=O)c3cc(=O)[nH]c4ccccc34)CC2)cc1C | > 79 µM (inactive) |
| O=c1[nH]c2ccccc2cc1CN(Cc1ccco1)S(=O)(=O)c1ccc(F)cc1 | > 79 µM (inactive) |
| COc1cc(-c2cc(C(=O)Nc3cccc(C(C)=O)c3)c3ccccc3n2)cc(OC)c1OC | 2.08 µM |
